Results from US20210038591A1, “VIRAL VECTOR TRANSDUCTION” (Oxford University Innovation Limited, priority 2018, published 2021).

Key:
[1] = mefloquine enantiomers; cited from earlier work
Primary NHP RPE cells [2] = assay: HCQ effect on AAV transduction in primary NHP RPE cells, GFP qPCR; type: cell-based, Rhesus macaque (M. mullata); conditions: 18.75 μM HCQ, 3 days post-transduction, normalized to β-actin, N=3, p=0.0253
Method: (§1) Harvesting non-human primate (NHP) retinal pigment epithelium (RPE) cells. After enucleation, the cornea and lens were removed under direct visualization with a surgical microscope. Radial incisions were made towards the posterior pole to flatten the eyecup. The retina was removed by blunt dissection and the remaining eyecup was placed in media and stored on ice until the RPE cells were removed. RPE cells were detached using the TrypLE cell dissociation reagent and were cultured at 37° C.
(§2) Cell culture. Primary NHP RPE cells were seeded into a 12-well plate. 24 hr after seeding, the cells were incubated in media with 3.125 uM or 18.75 uM of HCQ for 1 hr prior to transduction with 2×10^9 genome copies per well. Cells were imaged 3 days post-transduction.
RNA & protein extraction and cDNA synthesis. The primary NHP RPE were harvested for RNA extraction 3-days post-AAV transduction with HCQ. Total RNA was extracted using the RNeasy Mini Kit (Qiagen) according to the manufacturer's instructions. Copy DNA was synthesised using 850-1500 ng of RNA using the Superscript III Kit (Invitrogen) with an oligo dT primer.
qPCR analysis. qPCR was carried out using TaqMan probes against GFP and β-actin in a CFX Connect thermal cycler (BioRad). GFP expression was normalized to β-actin and represented as a fold change to transduced cells incubated without HCQ.

Mouse retinas = assay: Subretinal co-injection of AAV GFP vector and HCQ in mice, GFP western blot of retinas; type: in vivo; conditions: 18.75 μM HCQ
Method: (§3) Subretinal injections. 7 week old female C57BL/6 mice were subretinally injected with 1.2 μL vector suspension (1×10^8 genome copies). The vector was prepared with a 3.125 uM or 18.75 uM final concentration of HCQ with control preparations without any HCQ. Animals were injected with an AAV+HCQ preparation in one eye and AAV only in the paired eye.
Protein extraction. Mouse retinas were thawed on ice and lysed in 1× RIPA buffer+protease inhibitors. The retinas were homogenised using a hand-held homogeniser and incubated on ice for 30 mins. The samples were centrifuged at 17,000×g at 4° C. for 20 mins. The supernatant was transferred to a new tube and kept on ice.
(§4) Western blot (WB). Total protein content in cell lysates was determined using the bicinchoninic acid method. GFP and actin proteins were probed using monoclonal antibodies, and detected using ECL and Odyssey Imaging System (LI-COR). Data analysis was performed using ImageStudio Lite software (LI-COR). GFP band density was normalised to actin.

retina of C57BL/6 mice [3] = assay: Subretinal co-injection of AAV GFP vector and HCQ in mice, cSLO fundus autofluorescence; type: in vivo, mouse; conditions: AAV 1×10^8 genome copies with 18.75 uM HCQ, 4 and 8 weeks post-injection
Method: as §3
Confocal scanning laser ophthalmoscope (cSLO) analysis. Standardized mouse autofluorescence (AF) imaging using a cSLO (Spectralis HRA, Heidelberg Engineering) was performed in all animals according to previously published protocol. All images were recorded using the 55° lens of the Spectralis HRA at 2, 4 and 8 weeks post-injection. Images were recorded using a standardized signal detector sensitivity. For quantitative analysis of fundus AF, the mean grey level was measured within a ring-shaped area located at radii between 350 and 860 pixels from the optic disc centre using ImageJ software (NIH).

retina of C57BL/6 mice [4] = assay: Subretinal co-injection of AAV GFP vector and HCQ in mice, OCT retinal thickness; type: in vivo, mouse; conditions: subretinal injection suspension with 3.125 uM or 18.75 uM HCQ, OCT at 2, 4 and 8 weeks
Method: as §3
OCT analysis. Animals were subject to wide-field spectral-domain optical coherence tomography (OCT, Spectralis HRA, Heidelberg Engineering) at 2, 4 and 8 weeks post-injection. Mice were scanned using a 55° lens and 8 radial sections were taken with a real-time average process of 25 frames. The total retinal thickness and the outer limiting membrane (OLM) thickness were manually measured on alternate radial sections using a calliper.

[5] = system: Wildtype (WT) mouse embryonic fibroblasts (MEFs); assay: HCQ effect on AAV (rAAV2.CAG.GFP.WPRE.pA) transduction in MEFs, flow cytometry GFP / 7-AAD; type: cell-based
Method: Cell culture. Wildtype (WT) mouse embryonic fibroblasts (MEFs) were seeded into 6-well plates. 24 hr after seeding the cells were incubated in culture media with HCQ concentrations of 3.125-50 uM for 1 hr prior to transduction with a rAAV2.CAG.GFP.WPRE.pA vector at a MOI of 1000. The cells were cultured in HCQ containing media until harvesting. Cells were imaged 3 days post-transduction (FIG. 1A).
Flow cytometry analysis. Cells were processed 3 days post-transduction and stained with the cell viability dye 7-AAD for 5 minutes prior to flow cytometry analysis. Fluorescent light was measured by a BD LSRFortessa flow cytometer using a blue laser with the bandpass filters 695 nm/[…] and 530 nm/[…] to detect the fluorochromes of 7-AAD and GFP, respectively (FIG. 1a).

Primary NHP RPE cells [6] = assay: HCQ effect on AAV transduction in primary NHP RPE cells, GFP protein western blot; type: cell-based, Rhesus macaque (M. mullata); conditions: 18.75 μM HCQ
Method: as §1, §2
Protein extraction. The flow through from RNA extraction above was combined with 4 volumes of acetone and incubated on ice for 30 min. Samples were centrifuged at 17,000×g for 30 min, the supernatant was discarded and the pellet washed in 100 μL of ice-cold ethanol. Pellets were resuspended in 1% SDS.
as §4, with “blot.” for “blot (WB).”, “β-actin.” for “actin.”

human retinal explants = assay: HCQ effect on AAV transduction in human retinal explants, mean grey value (GFP fluorescence); type: cell-based; conditions: 3.125 uM HCQ, 1×10^9 genome copies rAAV2.CAG.GFP.WPRE.pA, imaged every 2 days for 11 days, n=6, p=0.0213
Method: Harvesting tissue. Human retina fragments was extracted during routine retinal surgery in which a retinectomy was required (ethics approved). Fragments of retina were removed via a 23G sclerostomy with vitrectomy cutter (at minimal cut rate) and manual aspiration.
Culturing explants. Within 1 hr of tissue collection, retinal fragments were transferred using a 3 mL Pasteur pipette into individual organotypic culture inserts (BD Falcon), which were in turn placed within a 24-well plate. 400 uL of media was placed beneath the insert and 100 uL of media within the insert. 24 hr after culturing the retinal explants, the media was replaced with media containing 3.125 uM or 18.75 uM of HCQ. The explants were incubated in the HCQ medium for 1 hour prior to transduction with 1×10^9 genome copies of rAAV2.CAG.GFP.WPRE.pA vector. The explants were imaged every 2 days for 11 days and the mean grey value (representative of GFP fluorescence) of the explants was measured using ImageJ software (FIG. 3a).

Compound	half-life compared with the other enantiomer [1]	GFP mRNA expression, fold change to transduced cells incubated without HCQ (Primary NHP RPE cells [2]) [fold]	GFP signal detected by WB compared to the 0 μM HCQ paired eye (Mouse retinas)	increase in mean grey value of fundus AF images (surrogate measure of GFP expression) compared to control eyes injected with AAV only (retina of C57BL/6 mice [3]) [fold]	mean retinal thickness or retinal morphology, groups with and without HCQ (retina of C57BL/6 mice [4])	HCQ concentration that induces cell death ([5]; 7-AAD viability dye, 3 days post-transduction) [µM]	number of GFP expressing cells ([5]; HCQ 3.125-50 uM from 1 hr before transduction, rAAV2.CAG.GFP.WPRE.pA MOI 1000, 3 days post-transduction)	GFP protein expression increase compared to transduced cells incubated without HCQ (Primary NHP RPE cells [6]; 3 days post-transduction (FIGS. 2a and 2b)) [fold]	GFP protein expression improvement by western blot (Primary NHP RPE cells [6]; N=2, GFP band density normalised to β-actin (FIG. 2c))	increase in mean grey value (representative of GFP fluorescence) compared to no HCQ (human retinal explants)
O[C@H](c1cc(C(F)(F)F)nc2c(C(F)(F)F)cccc12)[C@@H]1CCCCN1 (single isomer, unassigned) [(+)-enantiomer]	shorter									
CCN(CCO)CCCC(C)Nc1ccnc2cc(Cl)ccc12 (stereo not shown) [HCQ, 2-[{4-[(7-chloroquinolin-4-yl)amino]pentyl}(ethyl)amino]ethanol]		3	increase in the GFP signal	2	no significant difference	≥ 25	increase the number of GFP expressing cells up to 18.75 uM	19	approximately 4 fold	up to 2 fold
